Legend:
Leigh cells = assay: Cell death caused by oxidative stress (BSO) in Leigh syndrome patient fibroblasts; assay type: cell-based, human; conditions: compound 10 μM, 4 days after BSO treatment
Method: In Examples 2 to 7 and Reference Example 1 below, an erythropoietin-producing human hepatocellular carcinoma cell Hep3B (obtained from ATCC [American Type Culture Collection]) was cultured and maintained under conditions of 5% CO2/20% O2 and 37° C. in an RPMI1640 (manufactured by Life Technologies, Inc./GIBCO) medium containing 100 U/mL penicillin (manufactured by Life Technologies, Inc./GIBCO), 100 μg/mL streptomycin (manufactured by Life Technologies, Inc./GIBCO), and 10% fetal bovine serum (FBS) (manufactured by Life Technologies, Inc./GIBCO) (hereinafter, referred to as “RPMI1640 common medium 1”). In Example 15 below, Leigh syndrome patients were subjected to skin biopsy to obtain skin fibroblast cells, which were then primarily cultured under conditions of 5% CO2/20% O2 and 37° C. in a DMEM low glucose (manufactured by Life Technologies, Inc./GIBCO) medium containing 100 U/mL penicillin (manufactured by Life Technologies, Inc./GIBCO), 100 μg/mL streptomycin (manufactured by Life Technologies, Inc./GIBCO), and 1% FBS (manufactured by Life Technologies, Inc./GIBCO) (hereinafter, referred to as “DMEM low glucose common medium”) to isolate cells (Leigh cells). In Example 13 below, a human kidney-derived cell line HK-2 (obtained from ATCC) was cultured and maintained under conditions of 5% CO2/20% O2 and 37° C. in a DMEM/F12 (manufactured by Life Technologies, Inc./GIBCO) medium containing 100 U/mL penicillin (manufactured by Life Technologies, Inc./GIBCO), 100 μg/mL streptomycin (manufactured by Life Technologies, Inc./GIBCO), and 10% fetal bovine serum (manufactured by Life Technologies, Inc./GIBCO) (hereinafter, referred to as “DMEM/F12 common medium”). In Example 14 below, a rat islet of Langerhans-derived cell line ISN-1e (kindly provided by Hisamitsu Ishihara, Nihon University School of Medicine) was cultured and maintained under conditions of 5% CO2/20% O2 and 37° C. in an RPMI1640 (manufactured by Life Technologies, Inc./GIBCO) medium containing 10 mM HEPES (manufactured by Sigma-Aldrich Corp.), 2 mM glutamine (manufactured by Sigma-Aldrich Corp.), 50 μM β-mercaptoethanol (manufactured by Sigma-Aldrich Corp.), 100 U/mL penicillin (manufactured by Life Technologies, Inc./GIBCO), 100 μg/mL streptomycin (manufactured by Life Technologies, Inc./GIBCO), and 10% FBS (manufactured by Life Technologies, Inc./GIBCO) (hereinafter, referred to as “RPMI1640 common medium 2”).
The Leigh cells were seeded at 4×10^4 cells/well to a 24-well cell culture plate and then cultured for 24 hours. The glutathione synthesis inhibitor BSO (L-buthionine sulphoximine) (manufactured by Sigma-Aldrich Corp.) was mixed at […] into a medium. After culture for 24 hours in the presence of BSO, each of 5 types of compounds (compounds #2, 4, 5, 21, and 35) was mixed at 10 μM into the medium. After culture for 4 days in the presence of these 5 types of compounds, the number of live cells was measured using Cell Counting Kit-8 (manufactured by Dojindo Laboratories) to calculate the survival rate of the cells (“BSO+#2”, “BSO+#4”, “BSO+#5”, “BSO+#21”, and “BSO+#35” of FIG. 17). […]

[1] = tested on: MCA (middle cerebral artery) occlusion mouse models; assay: Cerebral ischemic injury, MCA occlusion mouse model (TTC staining); assay type: in vivo; conditions: 40 mg/kg intraperitoneal 4 hours before ischemia, 24 hours after reperfusion, vs DMSO, n=1
Method: Two types of compounds (compounds #4 and 35) (40 mg/kg of mouse body weight) were each intraperitoneally administered to a mouse 4 hours before ischemia (n=1). A vehicle (DMSO) was administered to a control (n=1). Anesthesia was induced in each mouse with 4% halothane and oxygen and maintained by the intraperitoneal administration of ketamine (40 mg/kg) and xylazine (4 mg/kg) at 30-minute intervals. After the induction of systemic anesthesia, bifurcation of the common carotid artery was exposed under a microscope. A 6-0 nylon thread having a silicon-coated tip was inserted from the internal carotid artery toward the central side so that its tip reached the anterior communicating artery. The common carotid artery was further ligated to block blood flow into the middle cerebral artery. After the ischemic burden for 30 minutes, the nylon thread was removed so that the ligated common carotid artery was released to induce reperfusion.
24 hours after the reperfusion, each mouse was cervically dislocated and then decapitated to excise the brain. Five coronal sections of the cerebrum having a thickness of 2 mm were prepared from the boundary between the cerebrum and the cerebellum. The coronal sections of the cerebrum were stained with TCC through a reaction at 37° C. for 20 minutes with a TTC solution diluted to 1.5% with PBS. […]

HIF-α = HIF-α concentration in Hep3B cells (Total HIF-1α Cell-Based ELISA); parameters: species or system human; conditions: compound 10 μM, 20% O2, 24 hours
Method: The Hep3B cells were seeded at 1×10^4 cells/well to a 24-well cell culture plate and then cultured under normal oxygen (20% O2) for 24 hours. Each of 3 types of compounds (compounds #4, 21, and 35) was mixed at a concentration of 10 μM into RPMI1640 common medium 1. After further culture under normal oxygen (20% O2) for 24 hours, the concentration of HIF-α produced in the medium was measured using Total HIF-1 α Cell-Based ELISA Kit (manufactured by R&D Systems, Inc.). Hep3B cells cultured in the absence of the compound (DMSO added [1%]) (“Control” of FIG. 5) were used as a negative control. Hep3B cells cultured in the presence of HIF activators (FG-4592 [10 μM], DMOG [10 μM], and ciclopirox[10 μM]) (“FG”, “DMOG”, and “Ciclo”, respectively, of FIG. 5) were used as positive controls.

erythropoietin = assay: Erythropoietin production in vivo in mice, oral administration for 7 days; parameters: species or system mouse; conditions: 7 consecutive days, plasma 24 hours after final administration, vs corn oil, DMSO+corn oil or no administration
Method: A mixed solution (200 μl) of each of 4 types of compounds (compounds #4, 5, 21, and 35) (10 mg/100 μl of DMSO) (10 μl) and corn oil (190 μl) was prepared. This mixed solution (200 μl) was orally administered to each mouse (C57BL/6N 8 W, male, 21-25 g) between 15:00 to 18:00 every day using a sonde. This administration was carried out for 7 consecutive days. Mice orally given corn oil or DMSO and corn oil as well as non-administered mice were used as controls.
24 hours after the final administration, each mouse was cervically dislocated, and 500 μl of blood was collected from the heart. Then, an anticoagulant (10 μl of heparin) was added thereto, and the resulting blood was centrifuged (12000 rpm×20 min, 4° C.) to isolate plasma. The plasma concentration […] of erythropoietin was measured using a kit (Quantikine Mouse/Rat Epo Immunoassay, manufactured by R&D Systems, Inc.).

## COc1cc(COc2ccc3[nH]cc(CC(=O)O)c3c2)cc(OC)c1 [compound #35, 5-(3,5-Dimethoxybenzyloxy)-3-indoleacetic acid]
Leigh cells
  cell death of the Leigh cells by BSO: efficiently suppress the cell death
[1]
  volume of the cerebral infarction site: decreased
HIF-α
  HIF-α concentration in the Hep3B cells: increase the HIF-α concentration
erythropoietin
  amount of erythropoietin in the mouse blood: increased

— US10004718B2, “Erythropoietin expression promoter” (TOHOKU UNIVERSITY, priority 2012, dated 2018)
